Where two headings read alike, the source gives them in different places.
What was measured:
human erythrocyte AChE = target: T1, human erythrocyte AChE (Homo sapiens, UniProt P22303); experiment: biochemical; assay type: biochemical; conditions: for IC50: human erythrocyte AChE, mean ± SEM, n = 3
T1 construct: purchased Sigma-Aldrich; Milamed, Perm, Russia (supplement); host or cells: human erythrocytes

equine serum BChE = target: T2, equine serum BChE (Equus caballus, UniProt P81908); experiment: biochemical
T2 construct: purchased Sigma-Aldrich; Milamed, Perm, Russia (supplement); host or cells: horse serum

porcine liver CES = experiment: In vitro CES inhibition (4-NPA substrate); assay type: biochemical; conditions: % inhibition at 20 μM; n.a. = not active
Procedure: The esterase profile of the synthesized conjugates was determined. This included an assessment of their inhibition of cholinergic targets AChE and BChE along with a structurally related enzyme CES (EC 3.1.1.1), which hydrolyzes numerous ester‐containing drugs and is considered as an off‐target for anti‐AD agents.^[ [9], [40] ^] Human erythrocyte AChE, equine serum BChE, and porcine liver CES were used.^[ [40], [41], [42] ^]
Initially, we used a single concentration of 20 µM for all compounds.
^a All experiments were carried out in accordance with the standard protocols approved by IPAС RAS. Human erythrocyte AChE, equine serum BChE were purchased from Milamed (Perm, Russia). Porcine liver CES, substrates, and reference compounds were from Sigma-Aldrich (St. Louis, MO, USA). The activity of enzymes was measured spectrophotometrically, as described in detail in ^[1] using ATCh iodide, BTCh iodide, and 4-NPA as substrates for AChE, BChE, and CES, respectively. Experimental conditions: K,Na-phosphate buffer (100 mM), 25 °С, pH 7.5 for AChE and BChE and pH 8.0 for CES assay. Measurements were carried out on a FLUOStar Optima microplate reader (BMG Labtech, Ortenberg, Germany). Test compounds were dissolved in DMSO; final concentration of solvent in the incubation mixture was 2% (v/v).

[1] = target: T3, PAS of Electrophorus electricus AChE (EeAChE) (Electrophorus electricus, UniProt O42275); assay type: binding; conditions: 20 µM compound concentration
T3 construct: purchased Sigma-Aldrich type VI-S; host or cells: electric eel tissue
Procedure: The ability of the test compounds to competitively displace propidium was evaluated by the fluorescence method,^[ [65] ^] as described in detail in Makhaeva et al.^[ [66] ^] […] After 15 min of incubation of the test compounds at a concentration of 20 μM with a 7 μM solution of EeAChE in 1 mM Tris‐HCl buffer, pH 8.0, 25°C, propidium iodide (final concentration 8 μM) was added. Then, the solutions were incubated for 15 min and the fluorescence spectrum was recorded (530 nm (excitation) and 600 nm (emission)). […] Measurements were performed in triplicate on a FLUOStar Optima microplate reader (BMG LabTech).
The 7 μM EeAChE was incubated with the test compound at a concentration of 20 μM in 1 mM Tris-HCl buffer pH 8.0, 25 °C, for 15 min. After that, propidium iodide was added at final concentration of 8 μM. The samples were incubated for 15 min and the fluorescence spectrum (530 nm (excitation) and 600 nm (emission)) was taken. […] The measurements were carried out in triplicate on a FLUOStar Optima microplate reader. The degree of propidium displacement (% displacement) from the PAS of EeAChE was calculated by formula (1):
% Displacement = 100 – (IFAChE+ Propidium + inhibitor / IFAChE + Propidium) × 100 (1),
where IFAChE + Propidium is the fluorescence intensity of the propidium associated with AChE in the absence of the test compound (taken as 100%), and IFAChE + Propidium + inhibitor is the fluorescence intensity of the propidium associated with AChE in the presence of the test compound.

β‐amyloid (1–42) (Aβ42) = β‐amyloid (1–42) (Aβ42) (Homo sapiens, UniProt P05067); experiment: Inhibition of Aβ42 self-aggregation (thioflavin T fluorescence); assay type: biochemical; conditions: for inhibition at 100 µM: read-out: Inhibition of Aβ42 self‐aggregation, %
Procedure: Inhibition of Aβ42 self‐aggregation by test compounds was studied using the ThT fluorescence method^[ [67], [68] ^] with minor modifications as described in detail in Makhaeva et al.^[ [16] ^] Lyophilized hexamfluoroisopropanol‐pretreated Aβ42 (GenicBio Limited, 1 mg) was dissolved in DMSO to obtain a stable 500 μM solution. […] Myricetin and propidium iodide in the same concentration were used as references. […] Each assay was run in triplicate.
^c The inhibitory effect of the test compounds toward Aβ42 self-aggregation was determined using the thioflavin T (ThT) fluorescence method ^[5-7] with minor modifications as described in detail in ^[8]. Lyophilized HFIP-pretreated Aβ42 from BACHEM (Bubendorf, Switzerland) was used. […] Myricetin and propidium iodide were used as reference compounds (positive controls). Analyses were performed with a FLUOStar Optima microplate reader (LabTech, Ortenberg, Germany). The inhibition (%) of Aβ42 self-aggregation by the test compounds was calculated by the following equation: […]
where IFi and IFo are the fluorescence intensities obtained for Aβ42 in the presence and in the absence of inhibitor, respectively, after subtracting the fluorescence of respective blanks.

[2] = ABTS radical cation scavenging activity assay; conditions: for IC50: concentration reducing ABTS radical by 50%, 1 h; for ABTS^•+‐scavenging activity, TEAC: relative to Trolox, 1 h incubation, n.a. = inactive
Procedure: Data are given for 1 h of incubation of compounds with ABTS^•+. The AOA of the compounds was evaluated as Trolox equivalent antioxidant capacity (TEAC values) as the ratio of the slopes of the concentration–response curves, test compound/Trolox. All tests were performed at least in triplicate in three independent experiments. The IC50 values for the test compounds were also determined.

[3] = test system: HEK293T (human embryonic kidney) cells; experiment: Cytotoxicity, MTT assay, HEK293T; assay type: cell-based; conditions: HEK-293T, MTT, 24 h, mean ± SEM, n = 3, read-out: HEK293T IC50
[4] = test system: HepG2 cells (human hepatocellular carcinoma); experiment: Cytotoxicity, MTT assay, HepG2; assay type: cell-based; conditions: HepG2, MTT, 24 h, mean ± SEM, n = 3, read-out: Hep G2 IC50
[5] = test system: SH‐SY5Y (human neuroblastoma) cells; experiment: Cytotoxicity, MTT assay, SH-SY5Y; assay type: cell-based; conditions: MTT, 24 h, mean ± SEM, n = 3, read-out: SH‐SY5Y IC50
AChE = target: T4, AChE (Homo sapiens, UniProt P22303); experiment: Kinetic study of AChE inhibition, steady-state inhibition constants; assay type: biochemical; conditions: for αK i (noncompetitive inhibition constant), AChE / Ki: means ± SEM; for Ki: read-out: K i (competitive inhibition constant), AChE
T4 construct: purchased Sigma-Aldrich; Milamed, Perm, Russia (supplement); host or cells: human erythrocytes
Procedure: (§1) We assessed the mechanisms of AChE and BChE inhibition by performing a thorough analysis of enzyme kinetics. After a 5 min incubation at 25°C (for temperature equilibration) with three increasing concentrations of inhibitor and six decreasing substrate concentrations, the residual enzyme activity was measured as described above for enzymatic assays.

eqBChE = target: T5, eqBChE (Equus caballus, UniProt P81908); experiment: Kinetic study of BChE inhibition, steady-state inhibition constants; assay type: biochemical; conditions: for αK i (noncompetitive inhibition constant), eqBChE / Ki: means ± SEM; for Ki: read-out: K i (competitive inhibition constant), eqBChE
T5 construct: purchased Sigma-Aldrich; Milamed, Perm, Russia (supplement); host or cells: horse serum
Procedure: as §1

[6] = equine serum BChE, mean ± SEM, n = 3

T3 sequence (O42275 24-633): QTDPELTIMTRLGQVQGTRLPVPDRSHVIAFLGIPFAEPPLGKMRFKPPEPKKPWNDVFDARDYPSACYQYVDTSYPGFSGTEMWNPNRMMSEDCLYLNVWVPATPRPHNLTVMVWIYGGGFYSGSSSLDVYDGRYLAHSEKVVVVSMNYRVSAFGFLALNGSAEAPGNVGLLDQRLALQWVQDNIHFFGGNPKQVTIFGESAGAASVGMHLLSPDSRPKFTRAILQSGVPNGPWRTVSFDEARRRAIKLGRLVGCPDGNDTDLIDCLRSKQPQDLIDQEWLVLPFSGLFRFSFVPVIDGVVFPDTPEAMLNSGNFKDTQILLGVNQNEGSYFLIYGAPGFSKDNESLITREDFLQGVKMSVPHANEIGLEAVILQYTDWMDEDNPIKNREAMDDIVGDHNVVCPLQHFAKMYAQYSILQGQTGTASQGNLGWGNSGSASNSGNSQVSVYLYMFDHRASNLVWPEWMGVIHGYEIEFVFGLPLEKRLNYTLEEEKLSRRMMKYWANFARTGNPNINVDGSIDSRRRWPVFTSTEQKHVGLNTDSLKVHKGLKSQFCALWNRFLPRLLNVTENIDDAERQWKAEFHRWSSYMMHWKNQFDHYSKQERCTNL
Chain of β‐amyloid (1–42) (Aβ42) (P05067 672-713 limits assumed): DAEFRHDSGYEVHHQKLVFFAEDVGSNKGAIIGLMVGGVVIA
T5 sequence (P81908 whole entry): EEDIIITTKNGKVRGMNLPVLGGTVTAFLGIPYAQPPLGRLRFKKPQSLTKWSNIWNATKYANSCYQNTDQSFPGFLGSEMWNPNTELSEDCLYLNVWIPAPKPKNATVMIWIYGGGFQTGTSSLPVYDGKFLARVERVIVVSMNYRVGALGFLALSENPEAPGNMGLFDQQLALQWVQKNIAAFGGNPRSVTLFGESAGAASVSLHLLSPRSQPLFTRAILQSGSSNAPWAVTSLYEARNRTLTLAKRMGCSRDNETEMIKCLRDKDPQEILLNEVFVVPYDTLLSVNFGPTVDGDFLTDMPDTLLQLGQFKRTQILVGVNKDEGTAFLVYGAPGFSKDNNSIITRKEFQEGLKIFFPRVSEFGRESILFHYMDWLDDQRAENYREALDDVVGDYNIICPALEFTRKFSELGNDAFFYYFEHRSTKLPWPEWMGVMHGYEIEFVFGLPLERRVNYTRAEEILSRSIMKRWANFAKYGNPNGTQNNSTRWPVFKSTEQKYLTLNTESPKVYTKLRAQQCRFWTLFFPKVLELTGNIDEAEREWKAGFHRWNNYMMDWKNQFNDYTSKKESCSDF
T2 sequence (P81908 whole entry): as above
T1 sequence (P22303 32-617 isoform P22303-2 limits assumed): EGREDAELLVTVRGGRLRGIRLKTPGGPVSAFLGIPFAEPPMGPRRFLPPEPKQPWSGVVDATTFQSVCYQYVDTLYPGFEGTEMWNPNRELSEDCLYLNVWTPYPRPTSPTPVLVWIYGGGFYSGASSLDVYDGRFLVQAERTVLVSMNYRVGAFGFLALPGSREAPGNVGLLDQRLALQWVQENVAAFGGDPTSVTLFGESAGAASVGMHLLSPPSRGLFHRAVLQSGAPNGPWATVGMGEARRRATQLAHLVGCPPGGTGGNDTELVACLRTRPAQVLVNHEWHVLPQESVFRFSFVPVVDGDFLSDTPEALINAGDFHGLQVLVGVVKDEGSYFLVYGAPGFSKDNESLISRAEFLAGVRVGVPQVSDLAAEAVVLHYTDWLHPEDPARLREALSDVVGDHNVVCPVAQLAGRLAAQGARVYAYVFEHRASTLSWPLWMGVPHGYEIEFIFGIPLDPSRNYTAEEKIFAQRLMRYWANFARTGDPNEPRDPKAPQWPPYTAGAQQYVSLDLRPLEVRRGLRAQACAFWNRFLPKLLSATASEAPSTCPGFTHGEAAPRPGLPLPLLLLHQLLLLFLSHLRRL
T4 sequence (P22303 32-617 isoform P22303-2 limits assumed): as above

SMILES	IC50 (human erythrocyte AChE) [µM]	Selectivity index IC50AChE/IC50BChE (equine serum BChE)	IC50 (equine serum BChE; [6]) [µM]	CES inhibition, % (porcine liver CES)	Propidium displacement, % [1]	inhibition at 100 µM (β‐amyloid (1–42) (Aβ42); Aβ42 50 µM, compound 100 µM) [%]	IC50 [2] [µM]	ABTS^•+‐scavenging activity, TEAC [2]	also measured
O=C(NCCCCNc1c2c(nc3c1CCC3)CCCC2)c1ccccc1O [7a, N‐{4‐[(2,3,5,6,7,8‐Hexahydro‐1H‐cyclopenta[b]quinolin‐9‐yl)amino]butyl}−2‐hydroxybenzamide]	1.52 ± 0.14	6.0	0.254 ± 0.023	5.0 ± 0.1%	10.8 ± 0.8%	41.3 ± 3.3	17.6 ± 0.8	0.97 ± 0.04	IC50 [3]: 38.4 ± 3.6 µM; IC50 [4]: 74.7 ± 3.4 µM; IC50 [5]: 49.6 ± 3.7 µM
O=C(NCCCCCCNc1c2c(nc3c1CCC3)CCCC2)c1ccccc1O [7b, N‐{6‐[(2,3,5,6,7,8‐Hexahydro‐1H‐cyclopenta[b]quinolin‐9‐yl)amino]hexyl}−2‐hydroxybenzamide]	4.24 ± 0.08	193	0.022 ± 0.001	12.3 ± 1.2%	11.6 ± 0.9%	53.4 ± 4.2	17.6 ± 0.7	0.98 ± 0.04	αK i (noncompetitive inhibition constant), AChE (AChE): 6.25 ± 0.44 µM; Ki (AChE): 2.6 ± 0.19 µM; αK i (noncompetitive inhibition constant), eqBChE (eqBChE): 19.2 ± 0.9 nM; Ki (eqBChE): 0.0142 ± 0.0011 µM
O=C(NCCCCCCCCNc1c2c(nc3c1CCC3)CCCC2)c1ccccc1O [7c, N‐{8‐[(2,3,5,6,7,8‐hexahydro‐1H‐cyclopenta[b]quinolin‐9‐yl)amino]octyl}−2‐hydroxybenzamide]	1.53 ± 0.03	138	0.0111 ± 0.0001	32.9 ± 0.9%	11.8 ± 0.8%	74.1 ± 5.1	19.4 ± 0.6	0.94 ± 0.04	BChE inhibition, times more effective than amiridine (equine serum BChE): 25 times; IC50 (equine serum BChE): 0.011 ± 0.0001 µM; IC50 [3]: 3.62 ± 0.02 µM; IC50 [4]: 6.92 ± 1.22 µM; IC50 [5]: 7.99 ± 0.3 µM
Oc1ccccc1C=NCCCCNc1c2c(nc3c1CCC3)CCCC2 [9a, 2‐[({4‐[(2,3,5,6,7,8‐Hexahydro‐1H‐cyclopenta[b]quinolin‐9‐yl)amino]butyl}imino)methyl]phenol]	3.31 ± 0.02	5.2	0.642 ± 0.007	10.5 ± 0.9%	12.5 ± 1.1%	20.1 ± 1.4	26.6 ± 1.1	0.65 ± 0.03	ABTS^•+‐scavenging activity, TEAC ([2]; listed as 9a a): 0.65; IC50 [3]: 38.1 ± 2.1 µM; IC50 [4]: > 100 µM; IC50 [5]: 73.2 ± 0.9 µM
Oc1ccccc1C=NCCCCCCNc1c2c(nc3c1CCC3)CCCC2 [9b, 2‐[({6‐[(2,3,5,6,7,8‐Hexahydro‐1H‐cyclopenta[b]quinolin‐9‐yl)amino]hexyl}imino)methyl]phenol]	–	–	–	–	–	–	–	–	αK i (noncompetitive inhibition constant), AChE (AChE): 4.98 ± 0.33 µM; Ki (AChE): 1.76 ± 0.12 µM; αK i (noncompetitive inhibition constant), eqBChE (eqBChE): 89.0 ± 7.1 nM; Ki (eqBChE): 0.0501 ± 0.0048 µM
Oc1ccccc1CNCCCCCCNc1c2c(nc3c1CCC3)CCCC2 [10b, 2‐[({6‐[(2,3,5,6,7,8‐Hexahydro‐1H‐cyclopenta[b]quinolin‐9‐yl)amino]hexyl}amino)methyl]phenol]	1.19 ± 0.05	–	0.0294 ± 0.0006	–	–	79.2 ± 5.5	–	–	Type of AChE inhibition (AChE; Lineweaver–Burk analysis): mixed type of inhibition; αK i (noncompetitive inhibition constant), AChE (AChE): 1.50 ± 0.03 µM; Ki (AChE): 0.656 ± 0.011 µM; Type of BChE inhibition (eqBChE; Lineweaver–Burk analysis): mixed type of inhibition; αK i (noncompetitive inhibition constant), eqBChE (eqBChE): 45.4 ± 4.1 nM; Ki (eqBChE): 0.021 ± 0.0006 µM
O=[N+]([O-])c1ccc(OP(=O)(O)Oc2ccc([N+](=O)[O-])cc2)cc1 [BNPP, Bis‐4‐nitrophenyl phosphate, reference compound]	–	–	–	–	n.а.	–	–	–	AChE inhibition, % (human erythrocyte AChE; 20 µM): n.а.; BChE inhibition, % (equine serum BChE; 20 µM): n.а.; Inhibition of Aβ42 self‐aggregation, % (β‐amyloid (1–42) (Aβ42); Aβ42 50 µM, compound 100 µM): n.а.
COc1cc2c(cc1OC)C(=O)C(CC1CCN(Cc3ccccc3)CC1)C2 (stereo not drawn) [Donepezil, reference compound]	–	–	–	n.а.	–	–	–	–	inhibition at 100 µM (β‐amyloid (1–42) (Aβ42)): 90.7 ± 7.1%
O=c1c(O)c(-c2cc(O)c(O)c(O)c2)oc2cc(O)cc(O)c12 [Myricetin, reference compound]	–	–	–	–	–	79.4 ± 6.3	–	–	–
CC[N+](C)(CC)CCC[n+]1c(-c2ccccc2)c2cc(N)ccc2c2ccc(N)cc21.[I-].[I-] [Propidium iodide, reference compound]	–	–	–	–	–	–	–	–	Inhibition of Aβ42 self‐aggregation, % (β‐amyloid (1–42) (Aβ42); Aβ42 50 µM, compound 100 µM): 90.7 ± 7.1%
O=C(O)c1ccccc1O [Salicylic acid, reference compound]	–	–	–	8.9 ± 0.6%	–	–	–	did not show activity	–
Cc1c(C)c2c(c(C)c1O)CCC(C)(C(=O)O)O2 (stereo not drawn) [Trolox, 6-hydroxy-2,5,7,8-tetramethychroman-2-carboxylic acid, reference compound]	–	–	–	–	–	–	19.7 ± 1.4	1.0	–
CCCCCCNc1c2c(nc3c1CCC3)CCCC2 [compound 11, N‐hexyl‐2,3,5,6,7,8‐hexahydro‐1H‐cyclopenta[b]quinolin‐9‐amine]	4.3 ± 0.32	16.4	0.262 ± 0.008	5.6 ± 0.6%	–	–	–	–	–
CCCCCCN=Cc1ccccc1O [compound 12, 2‐[(hexylimino)methyl]phenol]	–	–	–	1.9 ± 0.1%	–	–	93.3 ± 4.1	0.15 ± 0.008	AChE inhibition, % (human erythrocyte AChE; % inhibition at 20 μM, n.a. = not active): n.а.; inhibition at 20 µM (equine serum BChE): 10.6 ± 0.1%
CCCCCCNCc1ccccc1O [compound 13, 2‐[(hexylamino)methyl]phenol]	–	–	–	14.8 ± 0.5%	–	–	10.7 ± 0.4	1.52 ± 0.07	inhibition at 20 µM (human erythrocyte AChE): 14 ± 0.6%; inhibition at 20 µM (equine serum BChE): 26.9 ± 0.5%
